Data reported in patent publication US11466298B2, “Method for preparing phosphorylated keto polyols, derivatives thereof and uses thereof” (COMMISSARIAT A L'ENERGIE ATOMIQUE ET AUX ENERGIES …, priority 2017, dated 2022).

Experiments:
[1] = target: T1, aldolase (SEQ ID NO: 10), RhaD aldolase (Bacteroides thetaiotaomicron, UniProt Q8A1A0); assay: Screening of ketones as acceptors with DHAP as donor, DHAP disappearance assay plus mass spectrometry; assay type: biochemical; conditions: for DHAP disappearance (%): 10 eq of ketone, 8 μmol DHAP, CoCl2, pH 7.5, RT, 5 h, under Ar; for acceptor of the enzyme when DHAP is the donor: SEQ ID NO: 10
T1 construct: made in house
T1 sequence (Q8A1A0 whole entry, change not shown): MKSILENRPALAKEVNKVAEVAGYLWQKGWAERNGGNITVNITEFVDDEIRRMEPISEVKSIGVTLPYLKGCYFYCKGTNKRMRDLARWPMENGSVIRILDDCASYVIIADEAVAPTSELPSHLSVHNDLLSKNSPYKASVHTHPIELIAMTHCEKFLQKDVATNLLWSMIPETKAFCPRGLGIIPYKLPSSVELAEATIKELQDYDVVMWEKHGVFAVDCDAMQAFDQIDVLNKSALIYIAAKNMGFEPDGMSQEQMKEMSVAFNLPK
Experimental: Enzyme corresponding to SEQ ID No 10 was purified for deeper characterization and a scale up was performed to analyze the new branched sugars. This aldolase was tested with DHAP as donor and various ketones under argon conditions to avoid oxidation of DHAP and cobalt ion (CoCl2) to optimize the activity. Conversion of the various reactions was determined by assaying DHAP disappearance using triose-phosphate-isomerase coupled with ca-glycerophosphate dehydrogenase enzymes. In addition the products of those reactions were analyzed by mass spectrometry. When the data from the two systems are in agreement, the compound is considered to be substrate of the enzyme.
(§1) Prior to the reaction, all the solutions and solids were degased by bubbling or circulating Ar. Under an Ar atmosphere, 1 mg of aldolase (SEQ ID NO: 10, 6.5 U), 8 μmol of DHAP (123 μL of 65 mM solution), 8 μL CoCl2 (10 mM), 10 eq of electrophile (selected ketone) and water to reach 200 μL final volume were added in a vial. The pH was adjusted to 7.5. The reaction mixture was gently stirred at RT for 5 h. DHAP disappearance was followed spectrophotometrically. The aldolase was removed by filtration over ultra-centrifugal filter unit (Amicon, 10 kDa). The reaction medium was directly analyzed by mass spectrometry (liquid chromatography (Alliance 2695—Waters) coupled to high resolution mass spectrometry (Micromass Q-TOF—Waters)).

[2] = test system: enzymes of SEQ ID NO:1-10 (RhaD); assay: LC/MS Orbitrap validation of products from 6 ketones, RhaD enzymes; assay type: biochemical; conditions: 5 to 10 eq of ketone, CoCl2, pH 7.3, 5 h at RT, LC/MS detection
Experimental: (§2) A mother solution was prepared by mixing DHAP (5.2 mL, 35 mM), CoCl2 (200 μL, 10 mM), 5 to 10 eq of ketone, adjusted to pH 7.3 and degased under Ar. In 10 vials containing each 4 mg of enzyme to screen (beforehand degased under Ar) were added 400 μL of the mother solution. The reactions were gently stirred for 5 h at RT. The aldolase was removed by filtration over ultra-centrifugal filter unit (Amicon, 10 kDa). The reaction medium was analyzed by mass spectrometry.
(§3) The detection of the compounds of interest was performed by LC/ESI-MS method using a Dionex TCC-3000RS chromatographic system (Thermo Fisher Scientific, Courtaboeuf, France) coupled to an ultra-high resolution Orbitrap Elite hybrid mass spectrometer ((Thermo Fisher Scientific, Courtaboeuf, France) equipped with a HESI source.
(§4) A Sequant ZICpHILIC column […], 2.1×100 mm (Merck, Darmstadt, Germany) thermostated at 15° C. was employed for HPLC separation. Mobile phase flow rate was set at 0.2 ml/min, and injection volume was 5 μl. Aqueous solution of 10 mM (NH4)2CO3 (at a pH of 9.9 adjusted by NH4OH) was used as phase A and acetonitrile was used as solvent B. The following gradient conditions were applied for elution: 1 min equilibration step at 80% of phase B; 7 min linear gradient from 80 to 40% of phase B; 3 min isocratic elution at 40% of B, return to 80% of phase B in 3 min and a reconditioning step of 8.5 min.
(§5) Mass and product ion spectra were recorded in the ESI negative ion mode. Ion spray (IS) was set at −4.5 kV and capillary temperature at 275° C. Sheath gas, auxiliary gas and sweep gas flow rates were set at 60, 10 and 0 arbitrary units, respectively. The mass resolution power of the detector was 60000.
(§6) Raw data were manually inspected using the Qual-browser module of Xcalibur version 2.2 (Thermo Fisher Scientific, Courtaboeuf, France) for enzymes from SEQ ID NO:1 to 20 and SEQ ID NO:23 for DHAP+dihydroxyacetone, and for SEQ ID NO:1 to 10 for the other couples of reagents.

SEQ ID: 23 (FucA) = assay: LC/MS Orbitrap validation of products from 6 ketones, FucA enzyme; assay type: biochemical, Kyrpidia tusciae; conditions: 5 to 10 eq of ketone, CoCl2, pH 7.3, 5 h at RT, LC/MS detection
Experimental: as §2, §3, §4, §5, §6

[3] = test system: RhaD aldolases of SEQ ID NO:1 to SEQ ID NO:21; assay: Aldol reaction of DHAP with dihydroxyacetone (DHA), RhaD aldolases; assay type: biochemical; conditions: 10 eq of DHA, CoCl2, pH 7.5, RT, 5 h
Experimental: (§7) Aldolases were tested with DHAP as donor and DHA as acceptor. Cobalt ion (CoCl2) to was added to optimize the activity. Conversion of the reactions was determined by assaying DHAP disappearance using triose-phosphate-isomerase coupled with α-glycerophosphate dehydrogenase enzymes. In addition the products of those reactions were analyzed by mass spectrometry. When the data from the two systems are in agreement, DHA is considered to be substrate of the enzyme.
as §1, with “1” for “Prior to the reaction, all the solutions and solids were degased by bubbling or circulating Ar. Under an Ar atmosphere, 1”, “(RhaD, FucA or TagA),” for “(SEQ ID NO: 10, 6.5 U),”, “DHA” for “electrophile (selected ketone)”

[4] = test system: L-fuculose-1-phosphate aldolase (FucA) of SEQ ID NO:22-23, and 26-34; assay: Aldol reaction of DHAP with dihydroxyacetone (DHA), FucA aldolases; assay type: biochemical; conditions: 10 eq of DHA, CoCl2, pH 7.5, RT, 5 h
Experimental: as §7
as §1, with “1” for “Prior to the reaction, all the solutions and solids were degased by bubbling or circulating Ar. Under an Ar atmosphere, 1”, “(RhaD, FucA or TagA),” for “(SEQ ID NO: 10, 6.5 U),”, “DHA” for “electrophile (selected ketone)”

[5] = target: T2, L-tagatose 1.6 biP aldolase (TagA) of SEQ ID NO:35 (Escherichia coli, UniProt P0AB74); assay: Aldol reaction of DHAP with dihydroxyacetone (DHA), TagA aldolase; assay type: biochemical; conditions: 10 eq of DHA, CoCl2, pH 7.5, RT, 5 h
T2 construct: made in house
T2 sequence (P0AB74 whole entry): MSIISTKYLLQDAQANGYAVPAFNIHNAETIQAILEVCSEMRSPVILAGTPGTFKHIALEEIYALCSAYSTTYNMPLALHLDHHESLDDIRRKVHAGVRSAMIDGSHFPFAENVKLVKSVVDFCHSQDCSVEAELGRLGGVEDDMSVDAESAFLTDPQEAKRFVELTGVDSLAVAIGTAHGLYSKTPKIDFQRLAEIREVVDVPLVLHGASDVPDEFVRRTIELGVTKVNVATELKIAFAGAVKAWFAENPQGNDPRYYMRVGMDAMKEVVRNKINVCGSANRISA
Experimental: as §7
as §1, with “1” for “Prior to the reaction, all the solutions and solids were degased by bubbling or circulating Ar. Under an Ar atmosphere, 1”, “(RhaD, FucA or TagA),” for “(SEQ ID NO: 10, 6.5 U),”, “DHA” for “electrophile (selected ketone)”

[6] = test system: DHA aldolases (i.e. FSA of E. coli), deoc aldolase, class I DHAP aldolases and pyruvate aldolases; assay: Aldol reaction of DHAP with DHA, aldolases not belonging to class II DHAP aldolases; assay type: biochemical; conditions: data not shown
[7] = target: RhaD of various microorganisms including E. coli (Escherichia coli, UniProt P32169); assay: Substrate spectrum of RhaD aldolases with respect to ketones; assay type: biochemical
RhaD of various microorganisms including E. coli, sequence (P32169 whole entry): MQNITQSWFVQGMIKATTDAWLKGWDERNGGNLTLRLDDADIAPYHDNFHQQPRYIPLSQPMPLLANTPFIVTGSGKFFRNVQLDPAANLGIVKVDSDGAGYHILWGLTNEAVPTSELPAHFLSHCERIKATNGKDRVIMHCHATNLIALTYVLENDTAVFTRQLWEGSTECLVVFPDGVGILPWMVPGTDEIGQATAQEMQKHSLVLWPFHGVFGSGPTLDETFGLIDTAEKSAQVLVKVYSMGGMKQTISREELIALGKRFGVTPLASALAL

Compound | DHAP disappearance (%) [1] | ability of the tested RhaD to catalyze the reaction of DHAP with the ketone to form the expected product [2] | ability of the tested FucA to catalyze the reaction of DHAP with the ketone to form the expected product (SEQ ID: 23 (FucA)) | other results
CCC(=O)CO [1-hydroxybutanone] | 84% | – | – | –
O=C(O)C(=O)CO [hydroxypyruvate] | 92% | able to catalyze | able to catalyze | –
CC(=O)CC(C)=O | 83% | – | – | –
hydroxyacetone | 95% | able to catalyze | able to catalyze | –
O=C(CO)CO [dihydroxyacetone] | 100% | able to catalyze | able to catalyze | ability of the enzymes to catalyse the reaction between DHAP and DHA [3]: able to catalyse; ability of the enzymes to catalyse the reaction between DHAP and DHA [4]: same results; ability of the enzyme to catalyse the reaction between DHAP and DHA [5]: same results; ability of the enzymes to catalyse the reaction between DHA and DHAP [6]: failed to catalyze
O=C(CO)[C@@H](O)CO [L-erythrulose] | 100% | able to catalyze | able to catalyze | –
CC(=O)CCO [drawing 99] | 0% | – | – | –
O=C1CCCCC1O (stereo not drawn) [2-hydroxycyclohexanone] | 84% | able to catalyze | able to catalyze | –
CC(=O)CCO [4-hydroxybutan-2-one] | – | – | – | acceptor of the enzyme when DHAP is the donor [1]: not acceptors
O=C(CCl)CCl | 72% | – | – | –
CC(=O)C(C)O (stereo not drawn) | 96% | – | – | –
butanone | 0% | – | – | acceptor of the enzyme when DHAP is the donor [1]: not acceptors; ability of RhaD to catalyze the reaction of DHAP with the ketone [7]: unable to catalyze
O=C1CCCC1 [cyclopentanone] | 0% | – | – | acceptor of the enzyme when DHAP is the donor [1]: not acceptors; ability of RhaD to catalyze the reaction of DHAP with the ketone [7]: unable to catalyze
CC(=O)C(C)=O [butanedione] | 100% | able to catalyze | able to catalyze | –
CC(=O)C(=O)O | 75% | – | – | –
O=C(CO)Cc1ccccc1 | 71% | – | – | –
acetone | 0% | – | – | acceptor of the enzyme when DHAP is the donor [1]: not acceptors; ability of RhaD to catalyze the reaction of DHAP with the ketone [7]: unable to catalyze
